According to PMC12166061, “Crystallographic fragment screening reveals ligand hotspots in TRIM21 PRY-SPRY domain” (Communications Chemistry, 2025):
Where two headings read alike, the source gives them in different places.

Tests used:
Type in all cases: binding
His-mTRIM21 PRYSPRY = target: T1, His-mTRIM21 PRYSPRY (Mus musculus, UniProt Q62191); test: SPR fragment screening and dose response, mouse TRIM21 PRY-SPRY
T1 construct: mouse TRIM21 PRY-SPRY domain (residues V291-M470, UniProt-ID: Q62191); made in house; host or cells: E. coli BL21(DE3)
T1 sequence (Q62191 291-470): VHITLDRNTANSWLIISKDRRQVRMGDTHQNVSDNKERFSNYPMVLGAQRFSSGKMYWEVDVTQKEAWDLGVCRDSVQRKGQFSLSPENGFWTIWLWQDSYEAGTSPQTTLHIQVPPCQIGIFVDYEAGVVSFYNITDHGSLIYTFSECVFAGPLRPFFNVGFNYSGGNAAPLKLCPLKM
Procedure: (§1) His-mTRIM21 PRYSPRY and His-SUMO-hTRIM21 PRY-SPRY were immobilized onto flow channels (FC) FC2, FC3, and FC4 of a Series S sensor chip NTA (Cytiva). […] Proteins (10–20 µg mL^−1 in HBS-P+) were injected at 10 µL min^−1 to achieve response levels of 3500–4300 RU for mTRIM21 and 3600–4000 RU for hTRIM21. Flow channel 1 (FC1) was used as a reference surface. Surface deactivation and nickel stripping were achieved using 1 M ethanolamine and 350 mM ethylenediaminetetraacetic acid (EDTA), respectively.
(§2) Fragment screening was conducted by injecting 500 µM fragments diluted in running buffer (HBS-P+ with 1 mM TCEP and 2% (v/v) dimethyl sulfoxide (DMSO)) over all flow-channels for 30 s at 30 µL/min^−1. To account for surface drift, 50 µM of a control compound (Suramin) was injected every 15 fragment injections, and blank injections were performed every 5 fragments. Responses were analyzed by blank subtraction, reference subtraction (FC1), solvent correction, molecular weight adjustment, and drift correction using Biacore T200 Evaluation Software v3.2.1. The binding threshold for fragment hits was set based on the Suramin-binding response level.
The data was solvent-corrected, reference-subtracted (FC1), and blank-subtracted using the T200 Evaluation Software v3.2.1. Sensorgrams were subsequently replotted using Graphpad v.9 software.

[1] = target: T2, human TRIM21 PRY-SPRY domain (Homo sapiens, UniProt P19474); test: Differential scanning fluorimetry (DSF, ΔTm), human TRIM21 PRY-SPRY domain
T2 construct: Human TRIM21 PRY-SPRY domain (residues V287-I465, UniProt-ID: P19474); His6 (N, cleaved yes); SUMO (N, cleaved yes); made in house; host or cells: E. coli BL21(DE3)
Procedure: (§3) Briefly, recombinant murine and human TRIM21 PRY-SPRY domain at a concentration of 8 μM were mixed with 2 mM compound in their respective SEC buffer. SYPRO Orange (5000×, Invitrogen) was added as a fluorescence probe (1 µl per mL). Subsequently, temperature-dependent protein unfolding profiles were measured using the QuantStudio™ 5 realtime PCR machine (Thermo Fisher). Excitation and emission filters were set to 465 nm and 590 nm, respectively. The temperature was raised with a step rate of 3 °C per minute. Data points were analysed with the internal software (Thermal Shift SoftwareTM Version 1.4, Thermo Fisher) using the Boltzmann equation to determine the inflection point of the transition curve.

[2] = target: T3, murine TRIM21 PRY-SPRY domain (Mus musculus, UniProt Q62191); test: Differential scanning fluorimetry (DSF, ΔTm), mouse TRIM21 PRY-SPRY domain
T3 construct: mouse TRIM21 PRY-SPRY domain (residues V291-M470, UniProt-ID: Q62191); made in house; host or cells: E. coli BL21(DE3)
T3 sequence (Q62191 291-470): T1 sequence (Q62191 291-470)
Procedure: as §3

[3] = target: T4, His-SUMO-hTRIM21 PRY-SPRY (Homo sapiens, UniProt P19474); test: SPR fragment screening, human TRIM21 PRY-SPRY
T4 construct: Human TRIM21 PRY-SPRY domain (residues V287-I465, UniProt-ID: P19474); made in house; host or cells: E. coli BL21(DE3)
Procedure: as §1, §2

[4] = single dose 500 µM fragment, relative response, suramin reference threshold 100 relative RU

T2 sequence (P19474 287-465): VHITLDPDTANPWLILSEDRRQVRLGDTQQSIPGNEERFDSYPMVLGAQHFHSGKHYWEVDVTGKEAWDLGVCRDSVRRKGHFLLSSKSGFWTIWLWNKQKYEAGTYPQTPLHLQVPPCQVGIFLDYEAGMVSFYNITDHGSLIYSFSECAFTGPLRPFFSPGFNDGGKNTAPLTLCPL
T4 sequence (P19474 287-465): as above

Compound | SPR mTRIM21 (Response) (His-mTRIM21 PRYSPRY; [4]) | Tm-Shift hTRIM21 ([1]; 2 mM compound, 8 μM protein) | Tm-shift mTRIM21 ([2]; 2 mM compound, 8 μM protein) | SPR hTRIM21 (Response) [3, 4] | SPR mTRIM21 (Response) (His-mTRIM21 PRYSPRY) | Tm-Shift hTRIM21 [1] | Tm-shift mTRIM21 [2] | SPR hTRIM21 (Response) [3]
CC(CS(N)(=O)=O)c1ccccc1 (centres unmarked) [Fragment Z1407673036] | 43.51 | -0.4 °C | -0.3 °C | 47.04 |  |  |  | 
Cc1cc(N2CCCCC2)nc(CO)n1 [Fragment Z1980894300] | 77.01 | 0 °C | -0.2 °C | 66.59 |  |  |  | 
CC1CN(C(=O)c2cnsn2)C(C)CO1 (centres unmarked) [Fragment Z768399682] | 24.2 | 0 °C | -0.3 °C | 20.05 |  |  |  | 
CC(=O)N1CCCC2(CCCCCC2)C1 [Fragment Z1275599911] | 32.73 | -0.9 °C | -1.3 °C | 30.21 |  |  |  | 
O=C(c1ccco1)N1CCN(C(=O)C2CC2)CC1 [Fragment Z32327641] | 37.82 | 0 °C | -0.2 °C | 35.48 |  |  |  | 
CC(=O)Nc1ccc(CN2CCOCC2)cc1 [Fragment Z57450788] | 64.68 | 0.4 °C | 0 °C | 43.78 |  |  |  | 
CN(C)C(=O)c1ccc2c(c1)CCCN2 [Fragment Z1222331430] |  |  |  |  | 51.36 | -0.2 °C | -0.2 °C | 70.74
CS(=O)(=O)NCCc1ccc(F)cc1 [Fragment Z45705015] | 46.34 | -0.2 °C | -0.5 °C | 48.3 |  |  |  | 
CCc1ncc(CNC)s1 [Fragment Z1267773633] | 58.5 | -0.4 °C | -0.4 °C | 45.3 |  |  |  | 
CCc1csc(-c2c[nH]cn2)n1 [Fragment Z1530301542] | 39.06 | 0.1 °C | -0.1 °C | 45.06 |  |  |  | 
CS(=O)(=O)NC1CCOC2(CCCC2)C1 (centres unmarked) [Fragment Z1446981563] | 27.71 | -0.1 °C | -0.4 °C | 28.35 |  |  |  | 
CS(=O)(=O)NCCc1ccccc1 [Fragment Z45617795] | 50.84 | -0.2 °C | -0.3 °C | 53.67 |  |  |  | 
CC(=O)NCc1ccnc(N(C)C)c1 [Fragment Z374427992] | 50.3 | -0.1 °C | -0.1 °C | 46.45 |  |  |  | 
CN(C)c1ccncc1 [Fragment Z1245793018] | 131.3 | 0 °C | 0.1 °C | 47.83 |  |  |  | 
